# Patent US6573258B2, “Photodynamic porphyrin antimicrobial agents” (Frontier Scientific, Inc., priority 2000, dated 2003)
# How the values were obtained:
# E. coli cells [1] = test: Growth inhibition after 5 min incubation with porphyrin and white-light irradiation; assay type: cell-based, Escherichia coli; details: for concentration photoinducing significant bacteriostatic and bactericidal action: both cell strains (S. aureus and E. coli)
# Protocol: (§1) The abilities of various examples of the porphyrins of the instant invention to kill Gram-negative and Gram-positive bacteria were tested against that of T4MPyP. Each of the compounds was incubated with E. coli and S. aureus cells for 5 minutes, following which the samples were irradiated with white light for varying lengths of time.
# (§2) Escherichia coli strain O4 (wild type), and methycillin-resistant Staphylococcus aureus, strain MRSA 110, were grown aerobically at 37° C. in brain heart infusion broth (BHI, Difco, Detroit, Mich.). The cells in the stationary phase of growth were harvested by centrifugation (2,000 g for 15 min) of the broth cultures, washed twice with 10 mM PBS at pH=7.4, containing 2.7 mM KCl and 0.14 M NaCl, and suspended in PBS at a density of 10^8-10^9 cells/ml (absorbance of about 0.7 at 650 nm). Aliquots of 5 ml of the cell suspension were incubated with 1 μM porphyrins for 5 min in the dark at room temperature. After incubation the suspensions were centrifuged and the cell pellets were collected immediately or washed with PBS and centrifuged again for one or three times.
# (§3) The toxic effects of T4MPyP and its analogues on E. coli and S. aureus cells were evaluated by measuring the extent of growth inhibition (bacteriostatic effect) and reduction of survival (cytocidal/bacteriocidal effect) following treatment with porphyrin in the dark or upon light exposure.
# (§4) In all cases, 5 ml of the cell suspension (10^8-10^9 cells/ml) were incubated for 5 min in the dark at room temperature with the selected photosensitizer at concentrations ranging between 0.5 and 10 μM. After dark-incubation, some of the cell samples were irradiated with white light (150 mW/cm^2). During irradiation, (up to 30 min) the cells were kept at 37° C. and magnetically stirred. The treated and untreated control cells were diluted with BHI and maintained at 37° C. while the absorbance of the suspension at 650 nm was monitored at predetermined time periods for determining growth curves. The percent of growth inhibition in the treated cells was calculated by the following equation: […]
# (§5) where AX, and AC are the absorbances measured after 3 h incubation, respectively, for the treated and control cell suspensions, respectively, while A0 represents the initial absorbance and the AC is that of the control cell suspension after 5 hours incubation. Cell survival was determined by plating serially diluted aliquots of treated and untreated cells on brain heart agar and counting the number of colonies after 18-24 h incubation at 37° C.
# S. aureus cells [2] = test: as above; assay type: cell-based, Staphylococcus aureus
# Protocol: as §1, §2, §3
# […] After dark-incubation, some of the cell samples were irradiated with white light (150 mW/cm^2). During irradiation, (up to 30 min) the cells were kept at 37° C. and magnetically stirred. The treated and untreated control cells were diluted with BHI and maintained at 37° C. while the absorbance of the suspension at 650 nm was monitored at predetermined time periods for determining growth curves. The percent of growth inhibition in the treated cells was calculated by the following equation:
# as §5
# E. coli cells [3] = test: Decrease of cell survival (colony counting) after white-light irradiation; assay type: cell-based, Escherichia coli; details: for DECREASE OF SURVIVAL (log): 5 min dark incubation, 15 min white light (150 mW/cm^2)
# Protocol: as §2, §3, §4, §5
# [4] = Fluorescence quantum yields; assay type: physicochemical; details: for ΦF (PBS), fluorescence quantum yield: in PBS; for ΦF (SDS), fluorescence quantum yield: in aqueous 2% SDS
# Protocol: Ground-state absorption spectra of the porphyrins (ca. 5 μM in phosphate buffered saline (PBS, pH=7.4) were recorded with a Lambda 5 Perkin-Elmer spectrophotometer. Fluorescence spectra, corrected for the instrumental response, were recorded with a Perkin-Elmer (model LS) or a Spex (Fluorolog F112) spectrofluorimeter. Fluorescence quantum yields ((IF) of the porphyrin derivatives in PBS and in water containing 2% sodium dodecylsulfate (a detergent, hereinafter “SDS”) were determined by measuring the area of the emission spectrum (600-800 nm range, excitation at 560 nm) and using tetra-n-propylporphycene in toluene as a reference (ΦF=0.38). Braslavsky et al, J. Photochem. Photobiol. B: Biol., 40:191-198 (1997). In all cases, the absorbance of the sample and the reference solution were kept below 0.1 at the excitation wavelength to minimize inner filter effects.
# [5] = Fluorescence decay times (phase-shift method); assay type: physicochemical; details: ca. 5 μM, air-equilibrated buffer pH 7.4, λexc = 420 nm, λem > 600 nm; for A1, relative weight of fast component: dihydrochloride salt
# Protocol: Fluorescence decay times of the porphyrin samples were measured by means of a Spex Fluorolog-τ2 spectrofluorimeter based on the phase-shift method. The frequency response curves (phase-shift and demodulation ratio vs. frequency) were globally analyzed.
# [6] = Triplet state properties by laser flash photolysis; assay type: physicochemical; details: phosphate-buffered solution; for φT, triplet quantum yield: ε920 estimated by total depletion method
# Protocol: Laser flash photolysis experiments were carried out by use of the setup previously described in Gomer, et al., with excitation wavelengths of 355 and 420 nm. Gorner, et al., Photoinduced electron transfer between styrylanthracenes and electron donors and acceptors in acetonitrile, J. Chem. Soc. Faraday Trans., vol. 88, pp. 29-34 (1992).
# The transient spectra of the porphyrins in buffer solutions were recorded upon laser flash photolysis excitation at 355 and 420 nm. […] The decay (growth) of the signal (bleaching) occurred according to first-order kinetics and led to a complete recovery of the ground state with a lifetime of 91 μs. […] This also allowed the triplet quantum yield (φT) to be determined (see Table 3), after calibration of the experimental setup by use of an optically-matched solution of benzophenone in acetonitrile.
# [7] = Photosensitized photooxidation of NATA; details: 10 μM NATA; for ΦSDS × 10^3, quantum yield for photo-oxidation of NATA: aqueous 2% SDS; for ΦPBS × 10^3, quantum yield for photo-oxidation of NATA: phosphate buffered solution
# Protocol: The photosensitizing activity of the various porphyrins was tested by measuring their efficiency in promoting the photooxidation of N-acetyl-L-tryptophanamide (NATA, Aldrich Chem. Co.) as a model biological substrate. Toward this aim, 10 μM NATA in PBS or in water containing 2% SDS was irradiated in the presence of 5 μM porphyrin. The irradiations were performed with 515±10 nm-light isolated by means of an interference filter (Balzers, Liechtenstein), while the solution (2 ml) was magnetically stirred in a quartz cuvette of 1-cm optical path and kept at 25° C. The photosensitized modification of NATA was followed by measuring the decrease in the intensity of its fluorescence emission spectrum (300-450 nm) upon excitation with 290 nm-light at various irradiation times. Plots of in F°/F (where F° and F represent the fluorescence intensity at time 0 and t, respectively) vs. the irradiation time allowed the first-order rate constants of the photo-process to be derived.
# The intensity of the incident light was measured by using Aberchrome 999P in toluene as an actinometer. Heller, EPA Newslett., 29:49-60 (1987). This parameter was used to calculate the quantum yields of NATA photooxidation sensitized by the different porphyrins.
# S. aureus cells [8] = test: Binding of porphyrins to bacteria cells; assay type: cell-based, Staphylococcus aureus; details: 1 μM, 5 min
# Protocol: as §2
# The amount of cell-bound porphyrins was determined in the pellets after resuspension and overnight-incubation in 2% aqueous SDS. The porphyrin concentration in the cell lysate was determined by measuring the intensity of red fluorescence (600-750 nm) emitted after excitation at 420 nm and interpolating the data on a calibration plot obtained with known porphyrin concentrations. The protein content of the cell samples was determined by the method of Lowry (Lowry et al., J. Biol. Chem., 193:265-275 (1951)) and was used to express the amount of porphyrin bound to the cells as nanomoles of porphyrin/mg of protein.
# S. aureus cells [9] = test: Dark toxicity of porphyrins on bacteria cells; assay type: cell-based, Staphylococcus aureus; details: 10 μM, 5 min incubation in the dark
# Protocol: as §3, §4, §5
# E. coli cells [10] = test: Dark toxicity of porphyrins on bacteria cells; assay type: cell-based, Escherichia coli; details: 10 μM, 5 min incubation in the dark
# Protocol: as §3, §4, §5
# [11] = 0.5 μM, incubated 5 min, white light 5 min
# [12] = Table 5: 0.5 μM, 5 min incubation, 5 min white light (150 mW/cm^2)
# [13] = 0.5 μM, incubated 5 min, white light 10 min
compound,measurement,setting,value
"5-(4-N-hexylpyridyl)-10,15,20-tris(4-N-methylpyridyl)-21H,23H-porphine tetrachloride dihydrochloride salt [Porphyrin C6]",Growth inhibition (%) E. coli,E. coli cells [1]; [11],4.8%
same,Growth inhibition (%) E. coli,"E. coli cells [1]; 0.5 μM, incubated 5 min, white light 30 min",15.5%
same,Growth inhibition (%) E. coli,"E. coli cells [1]; 10 μM, incubated 5 min, white light 5 min",98.7%
same,Growth inhibition (%) E. coli,"E. coli cells [1]; 10 μM, incubated 5 min, white light 10 min",100%
same,Growth inhibition (%) E. coli,E. coli cells [1]; [12],5%
same,Growth inhibition (%) E. coli,"E. coli cells [1]; Table 5: 10 μM, 5 min incubation, 5 min white light (150 mW/cm^2)",99%
same,concentration photoinducing significant bacteriostatic and bactericidal action,E. coli cells [1],10 µM
same,Growth inhibition (%) S. aureus,S. aureus cells [2]; [12],47%
same,DECREASE OF SURVIVAL (log),E. coli cells [3]; 1 μM porphyrin,+0.05 log
same,DECREASE OF SURVIVAL (log),E. coli cells [3]; 10 μM porphyrin,−4.23 ± 0.54 log
same,"ΦF (PBS), fluorescence quantum yield",[4],0.018
same,"ΦF (SDS), fluorescence quantum yield",[4],0.029
same,"A2, relative weight of slow component",[5],94%
same,"τ1, fluorescence decay time of fast component",[5],0.9 ns
same,"τ2, fluorescence decay time of slow component",[5],5.1 ns
same,"A1, relative weight of fast component",[5],6%
same,λmax of transient spectrum,[6],480 nm
same,λmin of transient spectrum,[6],425 nm
same,φ×ε920,[6],6217 M⁻¹ cm⁻¹
same,"τ^N2, triplet lifetime",[6],71 μs
same,"τ^air, triplet lifetime",[6],16 μs
same,"φT, triplet quantum yield",[6],0.48
same,"ΦSDS × 10^3, quantum yield for photo-oxidation of NATA",[7],0.68 ± 0.14
same,"ΦPBS × 10^3, quantum yield for photo-oxidation of NATA",[7],0.59 ± 0.05
same,association with S. aureus compared with E. coli,S. aureus cells [8],almost two-fold larger
same,inhibition of bacterial cell growth in the dark,S. aureus cells [9],barely detectable inhibition
same,inhibition of bacterial cell growth in the dark,E. coli cells [10],barely detectable inhibition
"CCCCCCCCCC[n+]1ccc(-c2c3nc(c(-c4cc[n+](C)cc4)c4ccc([nH]4)c(-c4cc[n+](C)cc4)c4nc(c(-c5cc[n+](C)cc5)c5ccc2[nH]5)C=C4)C=C3)cc1.Cl.Cl.[Cl-].[Cl-].[Cl-].[Cl-] [Porphyrin C10, 5-(4-N-decylpyridyl)-10,15,20-tris(4-N-methylpyridyl)-21H,23H-porphine tetrachloride dihydrochloride salt]",Growth inhibition (%) E. coli,E. coli cells [1]; [11],46.3%
same,Growth inhibition (%) E. coli,E. coli cells [1]; [13],92%
same,Growth inhibition (%) E. coli,"E. coli cells [1]; 1 μM, incubated 5 min, white light 5 min",96.1%
same,Growth inhibition (%) E. coli,"E. coli cells [1]; 1 μM, incubated 5 min, white light 10 min",100%
same,Growth inhibition (%) E. coli,E. coli cells [1]; [12],46%
same,concentration photoinducing significant bacteriostatic and bactericidal action,E. coli cells [1],ten-fold lower concentration
same,Growth inhibition (%) S. aureus,S. aureus cells [2]; [11],73.9%
same,Growth inhibition (%) S. aureus,S. aureus cells [2]; [13],87.9%
same,Growth inhibition (%) S. aureus,S. aureus cells [2]; [12],74%
same,DECREASE OF SURVIVAL (log),E. coli cells [3]; 1 μM porphyrin,−4.32 ± 0.34 log
same,drop in survival of E. coli cells,"E. coli cells [3]; 1 μM porphyrin, 15 min irradiation",4 log
same,"ΦF (PBS), fluorescence quantum yield",[4],0.015
same,"ΦF (SDS), fluorescence quantum yield",[4],0.026
same,"A2, relative weight of slow component",[5],94%
same,"τ1, fluorescence decay time of fast component",[5],1.1 ns
same,"τ2, fluorescence decay time of slow component",[5],5.2 ns
same,"A1, relative weight of fast component",[5],6%
same,λmax of transient spectrum,[6],490 nm
same,λmin of transient spectrum,[6],420 nm
same,φ×ε920,[6],10214 M⁻¹ cm⁻¹
same,"τ^N2, triplet lifetime",[6],67 μs
same,"τ^air, triplet lifetime",[6],20 μs
same,"φT, triplet quantum yield",[6],0.49
same,"ΦSDS × 10^3, quantum yield for photo-oxidation of NATA",[7],0.64 ± 0.26
same,"ΦPBS × 10^3, quantum yield for photo-oxidation of NATA",[7],0.59 ± 0.05
same,association with S. aureus compared with E. coli,S. aureus cells [8],almost two-fold larger
